One data set deals with Jurkat cells. Put plainly: AZT sensitivity of sorted cells constitutively expressing human-tmpk versus non-infected cells (NC). Format: cell-based. The following applies: AZT at high concentrations. As to the method:
(§1) In addition, regarding human-tmpk, after infection with a lentiviral vector, a similar experiment was conducted using sorted cells permanently-expressing the gene based on specificity to CD19.
(§2) Starting from the following day, AZT was administered at 0, 0.1, 1, 10, 100, and 1000 μM to each well for 3 days, and the number of viable cells was counted by the method described above.

The test system of data set [1] is MKN45 cells. The data set is described as above. The data set is classed as cell-based. The following applies: AZT at high concentrations. As to the method: as §1, §2
For data set [2], the system named is MKN45 cells. Nature of the data set: In vitro cytotoxic effects of suicide genes plus drug, viable cell count. The following applies: high concentration AZT.
In data set [3] the test system is KhES1 cells. Described as above. The data set is classed as cell-based, human. The following applies: high-concentration AZT. As to the method:
The total amount of the resulting product was administered. The medium was renewed 24 hours later. […] Then, 10 μL of the cells were collected.

Data set [4] relates to KhES1 cells after differentiation induction treatment. Put plainly: Safety upon in vitro GCV administration to differentiated cells.
Procedure: Analysis was conducted using the above sorted KhES1 cells to confirm safety upon GCV administration after differentiation induction. For differentiation induction, cells were seeded on a 96-well low adhesive plate containing ES medium (excluding LIF) at 3×10^3 cells per well. Culture was performed for one week so that an embryonic body was formed. Thereafter, subculture on a gelatin-coated dish was continued for 28 days or more so that sufficiently differentiated cells were produced. Cells subjected to differentiation induction were re-seeded on a 96-well plate at 1×10^5 cells per well. Starting from the following day, GCV was administered at 0, 0.01, 0.1, 1, 10, and 100 μg/mL to the groups of survivin-Venus-2A-HSV-tk (A), CAG-Venus-2A-HSV-tk (B), survivin-Venus-2A-puromycin lacking HSV-tk (C), and non-infected cells (NC)(D) for 4 days.
Data set [5] deals with KhES1 cells. Put plainly: In vitro toxicity of GCV on undifferentiated lentivirus-infected cells.
Procedure: Cells were infected with the vectors. The infected cells (GFP-positive cells) were sorted using FACS ARIA II (BD).
In the case of KhES 1, KhES 1 cells were cultured overnight in medium containing 10 μM Y27632, treated with CTK, and dispersed into separate cells. The number of cells was counted, a necessary amount of cells were centrifuged (1000 rpm, 5 minutes), and resuspended in 10 μM Y27632-containing PBS. Alexa Fluor 488 anti-Human SSEA4 (BIOLEGEND) serving as an antibody for labeling undifferentiated cells (5 μL) was added to 100 μL of a cell suspension (1×10^6 cells), cells were suspended on ice for every 10 minutes during stationary placement for 30 minutes for labeling of the cells. The cells were washed once with 10 μM Y27632-containing PBS, suspended in 10 μM Y27632-containing ES medium, and then GFP-positive cells labeled with the antibody were evaluated as undifferentiated lentivirus-infected KhES 1 cells using a flow cytometer.
Cytotoxic effects after GCV administration were analyzed using the above sorted KhES1 cells and D3 cells. KhES1 cells were seeded on a 96-well plate at 1×10^5 cells per well. […] Cytotoxic effects after 4-day administration were determined by WST-8 assay, which is modified MTT assay. […] Absorbance of this formazan at 450 nm was directly measured, thereby determining the number of viable cells (E).
Data set [6] concerns mouse ES/iPS cells or human ES/iPS cells. The following applies: cells subcutaneously transplanted; Non-Patent Documents 7 and 8; cited from earlier work.
For data set [7] the following is noted: tmpk with minimum gene modification; cited from earlier work.

As for `Cc1cn([C@H]2C[C@H](N=[N+]=[N-])[C@@H](CO)O2)c(=O)[nH]c1=O` [AZT, 3′-azido-3′-deoxythymidine], the “cell damage in cells not transfected with human-tmpk” value with Jurkat cells is given as “cell damage was observed even in cells not transfected with human-tmpk”; with MKN45 cells [2], “Cell damage was observed even in cells not transfected with human-tmpk”; in the data set with KhES1 cells [3] it was “cell damage was observed even in cells not transfected with human-tmpk”. Further, in the data set on MKN45 cells [1], the “cell damage in cells not infected with human-tmpk” value is given as “cell damage was induced at high concentrations even in cells not infected with human-tmpk”.

With `Nc1nc(O)c2ncn(COC(CO)CO)c2n1` [GCV, ganciclovir], the “cytotoxicity in non-infected cells (NC) after differentiation” value in data set [4] (GCV 0 to 100 μg/mL for 4 days) is “No cytotoxicity was observed”. Besides, the “non-specific cell killing effects in differentiated cells” value in data set [4] (GCV at 10 μg/mL or more, compared with undifferentiated cells) is “Non-specific cell killing effects were not observed”. In data set [4] (undifferentiated versus differentiated KhES1 cells, with or without HSV-tk), the “specificity of GCV toxicity” value is given as “exhibits toxicity only in undifferentiated cells under the presence of HSV-tk”. For the same molecule, in the data set on KhES1 cells [5] (GCV 1 μg/mL), the “cytotoxic effects in non-infected cells (NC)” value is “cytotoxic effects were not observed”. Also, in the data set with KhES1 cells [5] (GCV concentration of 10 μg/mL or more), the HSV-tk-non-specific cytotoxicity result was “HSV-tk-non-specific cytotoxicity was observed”. Also, the “tumor reduction by GCV administration” value in data set [6] is listed as “tumors can be reduced by GCV administration”.

B1: tmpk (F105Y): genetically improved human thymidylate kinase used as suicide gene (protein, UniProt P23919 2-212, looked up, variant F105Y)
Thymidylate kinase: AARRGALIVLEGVDRAGKSTQSRKLVEALCAAGHRAELLRFPERSTEIGKLLSSYLQKKSDVEDHSVHLLFSANRWEQVPLIKEKLSQGVTLVVDRYAFSGVAYTGAKENFSLDWCKQPDVGLPKPDLVLFLQLQLADAAKRGAFGHERYENGAFQERALRCFHQLMKDTTLNWKMVDASKSIEAVHEDIRVLSEDAIRTATEKPLGELWK
With B1, the “increased action on AZT-MP” value in data set [7] is 200 fold.
